In US10421765B2, “Tetrahydropyrido[4,3-d]pyrimidine inhibitors of ATR kinase” (Board of Regents, The University of Texas System, priority 2017, dated 2019):
Read-outs that look alike come from different tables or passages of the source.

Experiments:
[1] = molecular target: ATR/ATRIP complex (Homo sapiens (Human), UniProt Q13535); assay: ATR/ATRIP enzymatic assay (Caliper-based); format: biochemical; conditions: FAM-labeled RAD17 peptide, ATP
Summary of the method: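 FLAG-TEV-ATR/His6-ATRIP co-expressed in HEK293 and anti-FLAG purified. Compound preincubated 30 min at 28 °C with enzyme (2x solution 4 nM), then FAM-RAD17 peptide (2x solution 10 uM, 2 μM ATP) added for 6 h at 28 °C; HEPES pH 8, 10 mM MnCl2. Caliper conversion read-out, IC50 from four-parameter fit.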

[2] = test system: ATR-driven phosphorylation of Chk1 kinase at Serine 345 in HT-29 colorectal adenocarcinoma cells; assay: pCHK1 cellular assay (CHK1 p-Ser345 AlphaScreen SureFire); format: cell-based; conditions: 4-nitroquinoline N-oxide 12 uM, read-out: Cell IC50 (pCHK1 IC50 values)
Summary of the method: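 HT-29 cells seeded overnight, treated with 1:3 serially diluted compound for 90 minutes at 37° C., then 12 uM (final) 4-nitroquinoline N-oxide for 120 minutes. Lysates read for Chk1 p-Ser345 by AlphaScreen SureFire; IC50 from four-parameter logistic fit, normalized to DMSO (max) and 5 uM ATR inhibitor (min).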

[3] = read-out: ATR/ATRIP Enzyme IC50
[4] = Homo sapiens, HT-29, HT-29 cells
[5] = estimated range, read-out: ATR/ATRIP Enzyme IC50 (estimated class)

Sequence of ATR/ATRIP complex (Q13535 whole entry): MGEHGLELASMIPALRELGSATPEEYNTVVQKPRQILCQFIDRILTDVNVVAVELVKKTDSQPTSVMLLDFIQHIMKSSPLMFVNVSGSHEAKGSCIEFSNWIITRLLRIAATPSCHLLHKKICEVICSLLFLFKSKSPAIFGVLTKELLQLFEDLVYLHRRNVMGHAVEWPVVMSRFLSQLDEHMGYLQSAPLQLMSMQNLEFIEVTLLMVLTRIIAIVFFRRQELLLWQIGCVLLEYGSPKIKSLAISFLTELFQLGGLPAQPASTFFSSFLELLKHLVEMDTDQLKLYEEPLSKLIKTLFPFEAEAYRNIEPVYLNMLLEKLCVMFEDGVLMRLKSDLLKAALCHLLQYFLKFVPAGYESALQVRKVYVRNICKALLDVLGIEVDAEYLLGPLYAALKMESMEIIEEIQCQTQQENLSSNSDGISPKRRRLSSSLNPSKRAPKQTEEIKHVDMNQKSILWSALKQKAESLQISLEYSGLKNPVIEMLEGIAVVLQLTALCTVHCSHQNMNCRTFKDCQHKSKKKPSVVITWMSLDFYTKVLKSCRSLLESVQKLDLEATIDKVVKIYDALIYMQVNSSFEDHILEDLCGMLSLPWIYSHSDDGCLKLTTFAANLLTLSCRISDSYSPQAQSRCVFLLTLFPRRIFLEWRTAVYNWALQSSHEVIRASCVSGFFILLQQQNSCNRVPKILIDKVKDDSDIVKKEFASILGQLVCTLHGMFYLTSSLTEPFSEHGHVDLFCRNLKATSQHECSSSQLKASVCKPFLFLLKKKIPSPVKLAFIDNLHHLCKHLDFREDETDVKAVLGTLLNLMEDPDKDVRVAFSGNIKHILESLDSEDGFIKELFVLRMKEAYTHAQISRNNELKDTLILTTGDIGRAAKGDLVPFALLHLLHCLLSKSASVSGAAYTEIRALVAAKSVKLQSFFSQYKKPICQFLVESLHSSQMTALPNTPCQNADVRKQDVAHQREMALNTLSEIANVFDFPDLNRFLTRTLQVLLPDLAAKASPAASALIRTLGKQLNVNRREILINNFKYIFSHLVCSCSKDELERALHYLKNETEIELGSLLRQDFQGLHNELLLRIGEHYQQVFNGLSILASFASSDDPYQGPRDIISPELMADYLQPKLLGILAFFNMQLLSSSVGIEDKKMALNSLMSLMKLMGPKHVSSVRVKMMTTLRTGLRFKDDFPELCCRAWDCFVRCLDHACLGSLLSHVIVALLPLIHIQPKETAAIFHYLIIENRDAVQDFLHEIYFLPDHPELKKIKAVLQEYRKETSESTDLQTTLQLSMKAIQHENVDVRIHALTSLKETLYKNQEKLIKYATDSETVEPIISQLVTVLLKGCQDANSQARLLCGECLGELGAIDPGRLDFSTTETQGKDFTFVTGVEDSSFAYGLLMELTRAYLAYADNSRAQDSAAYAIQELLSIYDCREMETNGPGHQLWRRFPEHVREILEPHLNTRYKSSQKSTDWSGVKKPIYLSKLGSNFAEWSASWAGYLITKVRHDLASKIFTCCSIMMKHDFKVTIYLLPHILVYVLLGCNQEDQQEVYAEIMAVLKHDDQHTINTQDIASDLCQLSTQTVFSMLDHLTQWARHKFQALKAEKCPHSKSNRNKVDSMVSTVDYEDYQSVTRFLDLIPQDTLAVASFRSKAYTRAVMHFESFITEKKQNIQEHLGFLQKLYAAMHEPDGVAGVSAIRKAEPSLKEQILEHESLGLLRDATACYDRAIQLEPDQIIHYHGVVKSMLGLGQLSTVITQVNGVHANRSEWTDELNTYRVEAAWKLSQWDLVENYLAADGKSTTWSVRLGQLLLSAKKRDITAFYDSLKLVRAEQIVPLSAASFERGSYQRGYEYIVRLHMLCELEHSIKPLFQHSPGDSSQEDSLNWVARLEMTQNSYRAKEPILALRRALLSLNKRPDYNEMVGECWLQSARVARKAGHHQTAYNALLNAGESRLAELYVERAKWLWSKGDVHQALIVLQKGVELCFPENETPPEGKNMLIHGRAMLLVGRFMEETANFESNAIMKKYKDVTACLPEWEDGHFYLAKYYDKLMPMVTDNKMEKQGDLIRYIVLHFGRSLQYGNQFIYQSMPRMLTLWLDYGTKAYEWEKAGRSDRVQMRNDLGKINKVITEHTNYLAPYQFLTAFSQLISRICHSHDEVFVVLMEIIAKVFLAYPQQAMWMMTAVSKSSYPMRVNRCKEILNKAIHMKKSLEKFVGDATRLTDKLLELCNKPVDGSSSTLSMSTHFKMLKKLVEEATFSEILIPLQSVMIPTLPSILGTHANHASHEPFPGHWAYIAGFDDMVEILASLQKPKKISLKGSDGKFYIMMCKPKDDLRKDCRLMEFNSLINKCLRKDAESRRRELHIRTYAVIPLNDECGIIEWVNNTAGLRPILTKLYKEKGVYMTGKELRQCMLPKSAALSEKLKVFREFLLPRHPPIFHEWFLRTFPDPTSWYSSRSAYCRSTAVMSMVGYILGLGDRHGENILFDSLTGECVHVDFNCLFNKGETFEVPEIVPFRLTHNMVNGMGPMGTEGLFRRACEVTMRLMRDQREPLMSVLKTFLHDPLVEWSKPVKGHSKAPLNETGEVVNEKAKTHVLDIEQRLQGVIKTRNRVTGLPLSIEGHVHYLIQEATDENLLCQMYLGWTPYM
Sequence of ATR/ATRIP complex (Q8WXE1 whole entry partner): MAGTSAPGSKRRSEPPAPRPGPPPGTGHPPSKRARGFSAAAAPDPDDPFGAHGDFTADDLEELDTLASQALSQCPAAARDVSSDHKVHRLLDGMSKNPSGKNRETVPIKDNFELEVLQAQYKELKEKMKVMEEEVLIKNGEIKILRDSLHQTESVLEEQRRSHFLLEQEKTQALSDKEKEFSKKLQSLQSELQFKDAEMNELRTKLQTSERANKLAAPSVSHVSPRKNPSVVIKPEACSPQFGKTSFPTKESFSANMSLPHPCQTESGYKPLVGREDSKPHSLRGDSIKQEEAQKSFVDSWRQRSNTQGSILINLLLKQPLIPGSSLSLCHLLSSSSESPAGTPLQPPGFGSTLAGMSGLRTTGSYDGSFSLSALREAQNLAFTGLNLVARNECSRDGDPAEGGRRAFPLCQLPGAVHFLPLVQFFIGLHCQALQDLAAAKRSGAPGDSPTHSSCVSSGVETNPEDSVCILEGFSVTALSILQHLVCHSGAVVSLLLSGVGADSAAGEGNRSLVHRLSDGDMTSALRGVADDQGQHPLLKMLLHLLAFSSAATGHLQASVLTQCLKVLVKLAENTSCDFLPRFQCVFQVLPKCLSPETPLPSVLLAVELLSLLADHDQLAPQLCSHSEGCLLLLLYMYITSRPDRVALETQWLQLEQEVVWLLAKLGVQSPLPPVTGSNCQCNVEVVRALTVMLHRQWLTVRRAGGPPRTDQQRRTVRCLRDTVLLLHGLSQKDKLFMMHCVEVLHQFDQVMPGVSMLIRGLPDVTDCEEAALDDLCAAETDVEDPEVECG

| SMILES | IC50 [1, 3] | IC50 [2, 4] | IC50 [1, 5] | IC50 ([2]; HT-29 cells) |
| --- | --- | --- | --- | --- |
| C[C@@H]1Cc2ncnc(N3CCCN(S(C)(=O)=O)CC3)c2CN1c1ccnc2[nH]ccc12 [Example 19, 1-methanesulfonyl-4-[(7R)-7-methyl-6-{1H-pyrrolo[2,3-b]pyridin-4-yl}-5H,6H,7H,8H-pyrido[4,3-d]pyrimidin-4-yl]-1,4-diazepane] | – | 0.162 µM | 1 to 10 µM | – |
| C[C@@H]1Cc2ncnc(C3CCCN(S(C)(=O)=O)C3)c2CN1c1ccnc2[nH]ccc12 (stereo partly drawn) [Example 16, 1-methanesulfonyl-3-[(7R)-7-methyl-6-{1H-pyrrolo[2,3-b]pyridin-4-yl}-5H,6H,7H,8H-pyrido[4,3-d]pyrimidin-4-yl]piperidine] | 3.57 µM | 0.14 µM | – | – |
| C[C@@H]1Cc2ncnc(N3CCCC(C(C)(C)O)C3)c2CN1c1cc(Cl)nc2[nH]ccc12 (stereo in doubt) [Example 45, 2-((R)-1-((R)-6-(6-Chloro-1H-pyrrolo[2,3-b]pyridin-4-yl)-7-methyl-5,6,7,8-tetrahydropyrido[4,3-d]pyrimidin-4-yl)piperidin-3-yl)propan-2-ol] | 0.378 µM | 0.039 µM | – | – |
| CC1Cc2ncnc(-c3cccc(S(C)(=O)=O)c3)c2CN1c1ccnc2[nH]ccc12 (stereo not drawn) [Example 15, 4-(3-methanesulfonyl-phenyl)-7-methyl-6-{1H-pyrrolo[2,3-b]pyridin-4-yl}-5H,6H,7H,8H-pyrido[4,3-d]pyrimidine] | – | 0.152 µM | 1 to 10 µM | – |
| C[C@@H]1Cc2ncnc(N3CC4CCC(C3)C4NS(C)(=O)=O)c2CN1c1ccnc2[nH]ccc12 (stereo partly drawn) [Example 69, N-(3-((R)-7-methyl-6-(1H-pyrrolo[2,3-b]-pyridin-4-yl)-5,6,7,8-tetrahydropyrido[4,3-d]-pyrimidin-4-yl)-3-aza-bicyclo[3.2.1]octan-8-yl)-methanesulfonamide] | 0.283 µM | 0.048 µM | – | – |
| COC(=O)[C@H]1CCCN(c2ncnc3c2CN(c2cc(Cl)nc4[nH]ccc24)[C@H](C)C3)C1 [Example 63, Methyl (S)-1-((R)-6-(6-chloro-1H-pyrrolo[2,3-b]pyridin-4-yl)-7-methyl-5,6,7,8-tetrahydropyrido-[4,3-d]pyrimidin-4-yl)-piperidine-3-carboxylate] | 0.086 µM | 0.057 µM | – | – |
| CNC(=O)C1CCN(c2ncnc3c2CN(c2cc(Cl)nc4[nH]ccc24)[C@H](C)C3)CC1 [Example 76, (R)-1-(6-(6-chloro-1H-pyrrolo[2,3-b]pyridin-4-yl)-7-methyl-5,6,7,8-tetrahydropyrido[4,3-d]-pyrimidin-4-yl)-N-methylpiperidine-4-carboxamide] | 0.708 µM | 0.061 µM | – | – |
| CS(=O)(=O)N1CCC(c2ncnc3c2CN(c2ccnc4[nH]ccc24)C(CF)C3)CC1 (stereo not drawn) [Example 92] | 1.29 µM | 0.586 µM | – | – |
| C[C@@H]1Cc2ncnc(N3CCN(S(C)(=O)=O)CC3)c2CN1c1cc(Cl)nc2[nH]ccc12 [Example 20, 1-[(7R)-6-{6-chloro-1H-pyrrolo[2,3-b]pyridin-4-yl}-7-methyl-5H,6H,7H,8H-pyrido[4,3-d]pyrimidin-4-yl]-4-methanesulfonyl-piperazine] | – | 0.097 µM | 1 to 10 µM | – |
| C[C@@H]1Cc2ncnc(N3CCCC(S(C)(=O)=O)C3)c2CN1c1ccnc2[nH]ccc12 (stereo partly drawn) [Example 18, 3-methanesulfonyl-1-[(7R)-7-methyl-6-{1H-pyrrolo[2,3-b]pyridin-4-yl}-5H,6H,7H,8H-pyrido[4,3-d]pyrimidin-4-yl]piperidine] | 0.42 µM | 0.133 µM | – | – |

More lines, now with the values ahead:

| IC50 [1, 3] | IC50 [2, 4] | IC50 [1, 5] | IC50 ([2]; HT-29 cells) | SMILES |
| --- | --- | --- | --- | --- |
| 0.336 µM | 0.265 µM | – | – | C[C@@H]1Cc2ncnc(C3CCN(S(C)(=O)=O)CC3)c2CN1c1cc(C#N)nc2[nH]ccc12 [Example 98, (R)-4-(7-methyl-4-(1-(methylsulfonyl)piperidin-4-yl)-7,8-dihydro-pyrido[4,3-d]pyrimidin-6(5H)-yl)-1H-pyrrolo-[2,3-b]pyridine-6-carbonitrile] |
| 0.833 µM | 0.157 µM | – | – | CC1Cc2ncnc(C3CCN(S(C)(=O)=O)CC3)c2CN1c1ccnc2[nH]ccc12 (stereo not drawn) [Example 4, 7-Methyl-4-(1-(methylsulfonyl)piperidin-4-yl)-6-(1H-pyrrolo[2,3-b]pyridin-4-yl)-5,6,7,8-tetrahydropyrido[4,3-d]pyrimidine bis(trifluoroacetate)] |
| 0.472 µM | 0.016 µM | – | – | C[C@@H]1Cc2ncnc(N3CCC(NS(C)(=O)=O)CC3)c2CN1c1ccnc2[nH]ccc12 [Example 64, (R)-N-(1-(7-methyl-6-(1H-pyrrolo[2,3-b]-pyridin-4-yl)-5,6,7,8-tetrahydropyrido[4,3-d]-pyrimidin-4-yl)piperidin-4-yl)methanesulfonamide] |
| – | 0.554 µM | 1 to 10 µM | – | C[C@@H]1Cc2ncnc(N3CCS(=O)(=O)CC3)c2CN1c1cc(Cl)nc2[nH]ccc12 [Example 22, 4-[(7R)-6-{6-chloro-1H-pyrrolo[2,3-b]pyridin-4-yl}-7-methyl-5H,6H,7H,8H-pyrido[4,3-d]pyrimidin-4-yl]-1λ^6-thiomorpholine-1,1-dione] |
| 0.287 µM | 0.03 µM | – | – | C[C@@H]1Cc2ncnc(C3CN(S(C)(=O)=O)C3)c2CN1c1cc(Cl)nc2[nH]ccc12 [Example 47, (R)-6-(6-Chloro-1H-pyrrolo[2,3-b]pyridin-4-yl)-7-methyl-4-(1-(methylsulfonyl)azetidin-3-yl)-5,6,7,8-tetrahydropyrido[4,3-d]pyrimidine] |
| 0.475 µM | 0.048 µM | – | – | COC1CCN(c2ncnc3c2CN(c2cc(Cl)nc4[nH]ccc24)[C@H](C)C3)CC1 [Example 68, (R)-6-(6-chloro-1H-pyrrolo[2,3-b]pyridin-4-yl)-4-(4-methoxy-piperidin-1-yl)-7-methyl-5,6,7,8-tetrahydro-pyrido[4,3-d]pyrimidine] |
| 0.163 µM | 0.032 µM | – | – | C[C@@H]1Cc2ncnc(C3CCN(S(C)(=O)=O)CC3)c2CN1c1cc(Cl)nc2[nH]ccc12 [Example 7, (R)-6-(6-Chloro-1H-pyrrolo[2,3-b]pyridin-4-yl)-7-methyl-4-(1-(methylsulfonyl)-piperidin-4-yl)-5,6,7,8-tetrahydropyrido[4,3-d]pyrimidine bis(trifluoroacetate)] |
| 0.435 µM | – | – | 0.079 µM | C[C@@H]1Cc2ncnc([C@H]3CCN(S(C)(=O)=O)C(C)(C)C3)c2CN1c1ccnc2[nH]ccc12 (single isomer, unassigned) [Example 48b] |
| – | 0.046 µM | 1 to 10 µM | – | COC(=O)NC1[C@@H]2CC[C@H]1CN(c1ncnc3c1CN(c1cc(Cl)nc4[nH]ccc14)[C@H](C)C3)C2 (stereo partly drawn) [Example 28, methyl N-{3-[(7R)-6-{6-chloro-1H-pyrrolo[2,3-b]-pyridin-4-yl}-7-methyl-5H,6H,7H,8H-pyrido[4,3-d]pyrimidin-4-yl]-3-aza-bicyclo[3.2.1]octan-8-yl}carbamate] |
| 0.138 µM | 7.39 µM | – | – | C[C@@H]1Cc2ncnc(C3CCN(S(C)(=O)=O)CC3)c2CN1c1cnc2cn[nH]c2c1 [Example 89, (R)-7-methyl-4-(1-(methylsulfonyl)piperidin-4-yl)-6-(1H-pyrazolo-[4,3-b]pyridin-6-yl)-5,6,7,8-tetrahydro-pyrido[4,3-d]pyrimidine] |
| 0.429 µM | 0.087 µM | – | – | CNC(=O)C1CN(c2ncnc3c2CN(c2cc(Cl)nc4[nH]ccc24)[C@H](C)C3)C1 [Example 34, 1-[(7R)-6-{6-chloro-1H-pyrrolo[2,3-b]pyridin-4-yl}-7-methyl-5H,6H,7H,8H-pyrido[4,3-d]pyrimidin-4-yl]-N-methylazetidine-3-carboxamide] |
